Source: US5925332A, “Radioimaging and radiochemotherapy phenolic thioether amines and acyl derivatives thereof for use in diagnosing and treating pigmentation disorders” (The Governors of the University of Alberta, priority 1992, dated 1999)
Converted amounts (≈) assume the structure as drawn. “Also recorded” adds a separate entry of the source. Each block holds one molecule with its values, some of them ahead of it.

Key:
melanoma = details: mice in vivo; cited from earlier work
[1] = Determination of NAP-TEA and N-Acetyl-4-S-CAP in plasma after i.p. injection; format: in vivo, C57BL/6J Black Mouse; details: NAP-TEA 300 mg/kg i.p., plasma at 5 and 20 minutes
Description: A C57BL/6J Black Mouse was injected at 300 mg/kg body weight by i.p. administration of NAP-TEA. 100 μl of plasma was extracted from the mouse after 5 minutes of injection and after 20 minutes of injection. The plasma samples were treated in accordance with the procedure of Example 2. The plasma samples were passed through a Sep-Pak C18 cartridge in either 5% methanol:water to produce eluent 1 or 50% methanol/water to produce eluent 2. Eluent 2 had the aqueous methanol removed therefrom to provide a residue. The residue was redissolved in methanol/0.1% acetic acid and water in a ratio of 50:50 and subjected to HPLC for both the 5 minute and 20 minute plasma samples. […] The concentration of N-Acetyl-4-S-CAP in the 5 minute extracted sample being considerably greater than in the 20 minute extracted sample to indicate that in vivo NAP-TEA is deacylated to N-Acetyl-4-S-CAP which in turn is then taken up by the mouse melanocytes.

HeLa = test: In vitro cytotoxicity, MTT assay, HeLa; format: cell-based; details: Homo sapiens, 120 h, 5 days
Description: (§1) MTT assay in accordance with the standard procedure
(§2) MTT solution (Sigma catalog No. M2128) was dissolved in PBS at 1 mg/ml and filtered to sterilize the solution. The solution was stored in the dark at 4° C. until used. The growing cells were harvested, counted and inoculated into 96 well microtiter plates (1-2×10^3 cells/well).After 24 h, drugs were applied to culture wells, and the cultures were incubated for 5 days at 37° C. At this time, 50 μl of MTT solution was added to microculture wells. After 4 h incubation at 37° C., supernatant was removed from each well. 150 μl of DMSO was added to solubilized the MTT-formazan product. After mixing gently, absorbance at 540 nm was measured with ELISA plate spectrophotometer.

SK-MEL-23 = test: In vitro cytotoxicity, MTT assay, SK-MEL-23; format: cell-based; details: 120 h; SK-MEL-23, MTT, 5 days
Description: as §1, §2

UT amelanotic melanoma = test: In vitro cytotoxicity, MTT assay, UT amelanotic melanoma; format: cell-based; details: 120 h, 5 days
Description: as §1, §2

mushroom tyrosinase = test: Utilization with mushroom tyrosinase (remaining compound by HPLC); format: biochemical; details: 11 units tyrosinase, pH 6.8, 37° C.
Description: A reaction mixture consisting of NAP-TEA (500 μmol) and of mushroom tyrosinase (11 units) in 1.0 ml of 0.05 M sodium phosphate buffer (pH 6.8) was incubated at 37° C. in a water bath. The reaction was stopped periodically by cooling with ice. Aliquots removed at set time intervals were rapidly cooled to 0° C. in an ice bath and the remaining NAP-TEA was measured using HPLC. HPLC instrument and conditions Water 600 E liquid chromatograph system Conditions: μBondapak C18, Radial-Pak Cartridge (Waters) Mobile phase; 70% MeOH/H2 O, 1 ml/min Detector; Waters Model 441 UV absorbance detector Detection; Wavelength 254 nm

monoamineoxidase (MAO) = details: cited from earlier work; for General (non-specific) cytotoxicity: via aldehyde metabolite formed by plasma MAO
tyrosinase = details: cited from earlier work
[2] = O-deacylation of NAP-TEA in mouse plasma in vitro; format: in vitro ADME; details: 10 μg in 100 μl mouse plasma, shaken one-half minute, HPLC
Description: NAP-TEA was introduced to mouse plasma to determine by in vitro experimentation the extent to which NAP-TEA is deacetylated to form N-Acetyl-4-S-CAP. The procedure was as follows. Into 100 μl of mouse plasma, 10 μg of NAP-TEA was introduced. The mixture was shook for one-half of a minute and then passed through a Sep-Pak C18 cartridge in either 7 ml of 5% methanol/water to form eluent 1 or in 4 ml of 50% methanol/water to form eluent 2. Both eluents 1 and eluents 2 were collected. Aqueous methanol was removed from eluent 2 to provide a residue which was subjected to HPLC under the following conditions. […] The residue was mixed with methanol:water at 50:50 with a flow rate through the radiograph at 1 ml/min. The detector was a Water Associates Model 441 with detection by ultraviolet at 250 nm.

[3] = tested on: follicular melanocytes (black hair); test: Melanocytotoxicity in vivo (depigmentation of black hair); details: 300 mg/kg i.p. daily for 14 days, plucked C57BL/6J black mice
Description: Hairs were plucked manually from the back of 6-8 week old C57BL/6J black mice (4 mice). Starting on day 2, daily for 14 days NAP-TEA was injected i.p. The dose was 300 mg/kg body weight.

hair follicles = test: Depigmenting effect on newborn black mice; format: in vivo, C57BL/6J black mice; details: single i.p. dose 300 mg/kg, 3 day old mice
Description: Six newborn (3 day old) C57BL/6J black mice were injected i.p. with a single dose of 0.1 mL of NAP-TEA solution (300 mg/kg body weight).

functioning melanocytes = test: In vivo melanocytotoxicity in pig, topical application, Dopa-positive melanocyte count; set-up: species or system Yucatan pig; details: topical twice a day for 8 weeks
Description: Solutions of 15% NAP-TEA in DMSO(w/v) and of 15% NAP-TEA in 60% EtOH(w/v) were prepared for topical application to a Yucatan pig. NAP-TEA was applied to the back skin of the pig twice a day for 8 weeks. After 8 weeks, punch biopsy was performed from the application area and from normal skin. Specimens obtained were kept in 2N NaBr solution for 3 hours followed by separation of the epidermis from dermis. Specimens of epidermis were incubated for 3 hours in phosphate buffer (pH 7.4) containing L-Dopa. The specimens were fixed in 10% neutral formalin solution and then washed twice in PBS. Finally, the specimens were mounted in glycerol gel. The numbers of Dopa-positive melanocytes in 9 adjacent 1 mm^2 fields from each sample were counted.

[4] = set-up: species or system animals; details: in vivo
Description: Experimental tests on animals indicate per single dose toxicity levels in the range of 1,400 mg/kg of body weight for the preferred compound of formula (II), NAP-TEA.

melanoma tissue = test: Distribution of 4-S-CAP in radioimaging or radiochemotherapy; details: in vivo
Source text: When the compounds of the formula (I) are used in radiochemotherapy they may be combined with suitable pharmaceutical excipients and carriers wherein the radioactive selected compounds are present in a biologically effective amount in the carriers. Suitable biologically, compatible carriers may be solutions when injected by either the IP or SC route. Suitable biologically, compatible carriers for injection include physiologically normal saline and other types of readily injectable solutions which are well understood by those skilled in the art and readily available. […] For purposes of injection, the concentration of the radiolabelled compound in the injectable solution is normally in the range of 200 to 1200 mg per kg of body weight where the preferred dosage is in the range of 300 mg to 500 mg per kg of body weight. In the following examples, further information is provided as to the amount of compounds injected for purposes of radioimaging.

epidermal melanocytes = details: topical application, cited from earlier work
follicular melanocytes = details: cited from earlier work
B16F10 melanoma [5] = test: In vivo covalent binding of (14C)-NACAP to tissues of melanoma-bearing mice; details: female C57BL/6J mice, single i.p. injection, 48 hr, mean + S.D. (n = 3)
Description: In vivo covalent binding of (^14 C)-N-acetyl-4-S-CAP was investigated in mice. Female C57BL/6J mice received a single intraperitoneal injection of 2.0 mmol/kg (^14 C)-N-acetyl-4-S-CAP compound. The animals were killed 48 hours later. The tissues were removed and the covalent binding was determined as follows.
Five different tissues were examined for covalent binding of radioactively labelled N-acetyl-4-S-CAP intermediate(s). The maximum binding of N-acetyl-4-S-CAP was detected in the s.c. melanoma tumor and melanoma colony-bearing lung tissues. […]
^a Female C57BL/6J mice received a single intraperitoneal injection o
2.0 nmol/kg (^14 C)NACAP. The animals were killed 48 hr later, the
tissues were removed, and the covalent binding was determined as describe
^b The data are presented as the means + S.D. (n = 3).

B16F10 melanoma [6] = test: In vivo biodistribution by whole-body autoradiography; set-up: species or system mouse
Description: 48 hours after injection the animal was killed, frozen and prepared for sectioning. The 20-μm sections were freeze-dried and exposed to x-ray film for whole-body autoradiography.
The s.c. melanoma tumor and the lung with melanoma colonies were the only organs displaying a significant accumulation of the radioactivity.

Structure (SMILES): NC(CSc1ccc(O)cc1)C(=O)O (stereo not drawn) [Compound 4-S-CP, 4-S-cysteinylphenol]
Antimelanoma effect (lifespan of melanoma-bearing mice, inhibition of melanoma growth) (melanoma): some inhibition of melanoma growth

Compound detected in plasma by HPLC after NAP-TEA injection [1]: evidence of N-Acetyl-4-S-CAP
Structure (SMILES): CC(=O)NCCSc1ccc(O)cc1 [N-Acetyl-4-S-CAP, N-acetyl-4-S-cysteaminylphenol]
IC50 (HeLa): 75 µg/mL (≈ 355 µM) | IC50 (SK-MEL-23): 25 µg/mL (≈ 118 µM) | IC50 (UT amelanotic melanoma): 12 µg/mL (≈ 56.8 µM) | Substrate of mushroom tyrosinase (concentration remaining in the reaction mixture) (mushroom tyrosinase): dropped off rapidly over 25 minutes to almost zero amount after 50 minutes | Antimelanoma effect (lifespan of melanoma-bearing mice, inhibition of melanoma growth) (melanoma): potent antimelanoma properties | General (non-specific) cytotoxicity (monoamineoxidase (MAO)): absence of such cytotoxicity | Substrate of tyrosinase (tyrosinase): superior substrate

Structure (SMILES): CC(=O)NCCSc1ccc(OC(C)=O)cc1 [NAP-TEA, N-{2-((4-Acetoxyphenyl)-thio)ethyl}acetamide]
O-deacylation to N-Acetyl-4-S-CAP in mouse plasma [2]: readily deacylated by the mouse plasma | Compound detected in plasma by HPLC after NAP-TEA injection [1]: no evidence of NAP-TEA | IC50 (HeLa): 77 µg/mL (≈ 304 µM) | IC50 (SK-MEL-23): 31 µg/mL (≈ 122 µM) | IC50 (UT amelanotic melanoma): 14 µg/mL (≈ 55.3 µM) | Substrate of mushroom tyrosinase (concentration remaining in the reaction mixture) (mushroom tyrosinase): not a substrate of mushroom tyrosinase | Depigmentation of replacement hair [3]: mice were depigmented with the new replacement hair being almost pure white | Depigmentation of hair follicles in newborn mice (hair follicles): depigmented in all hair follicles with the growing hair being light grey | Number of functioning melanocytes (Average of 9 fields) (functioning melanocytes; 15% NAP-TEA in 60% EtOH): 74 ± 25 /mm^2 | Number of functioning melanocytes (Average of 9 fields) (functioning melanocytes; 15% NAP-TEA in DMSO): 32 ± 14 /mm^2 | per single dose toxicity level [4]: ~1,400 mg/kg of body weight

Structure (SMILES): NCCSc1ccc(O)cc1 [Compound 4-S-CAP, 4-S-cysteaminylphenol]
Tissue accumulation in radioimaging or radiochemotherapy (melanoma tissue): collects in the eye as well as in the melanoma tissue | Antimelanoma effect (lifespan of melanoma-bearing mice, inhibition of melanoma growth) (melanoma): potent agent in prolonging the lifespan of melanoma-bearing mice | Inflammatory changes of the skin (epidermal melanocytes; guinea pigs): prominent | Depigmentation of black guinea pig skin (epidermal melanocytes): demonstrated depigmenting properties | Effect on albino follicles (follicular melanocytes; albino follicles): no effect on the albino follicles | Cytotoxicity on black hair follicles (follicular melanocytes; black follicles): demonstrated cytotoxicity in the depigmentation of black hair follicles | Substrate for monoamineoxidase (MAO) (monoamineoxidase (MAO); plasma): substrate for monoamineoxidase (MAO) | General (non-specific) cytotoxicity (monoamineoxidase (MAO)): high toxicity; also recorded: some general cytotoxicity

Radioactivity in melanoma-bearing organs by whole-body autoradiography (B16F10 melanoma [6]; mouse with s.c. B16F10 tumor and B16F10 lung colonies, single i.p. injection 5.0 μCi, 48 hours): showed radioactivity in infected organs
Structure (SMILES): CC(=O)NCCS[14c]1[14cH][14cH][14c](O)[14cH][14cH]1 [(14C)-NACAP, N-acetyl-4-S-cysteaminyl (U-^14 C) phenol]
Convalent Binding, B16F10 melanoma s.c. tumor (B16F10 melanoma [5]): 0.521 + 0.076 nmol covalently bound/kg of protein | Convalent Binding, kidney (B16F10 melanoma [5]): 0.008 + 0.001 nmol covalently bound/kg of protein | Convalent Binding, liver (B16F10 melanoma [5]): 0.013 + 0.003 nmol covalently bound/kg of protein | Convalent Binding, lungs with B16F10 melanoma colonies (B16F10 melanoma [5]): 0.330 + 0.113 nmol covalently bound/kg of protein | Convalent Binding, lungs without B16F10 melanoma colonies (B16F10 melanoma [5]): 0.010 + 0.001 nmol covalently bound/kg of protein | Radioactivity in normal organs by whole-body autoradiography (B16F10 melanoma [6]; 48 hours after i.p. injection, mouse): not detectable in any normal organs except the lumen of the large intestine

Structure (SMILES): COC(=O)C(N)CSc1ccc(O)cc1 (stereo not drawn) [methyl ester of 4-S-CP]
Antimelanoma effect (lifespan of melanoma-bearing mice, inhibition of melanoma growth) (melanoma): some inhibition of melanoma growth
